The source of these data is article PMC4060151 (Chemistry & biology, 2014).

The test system of one experiment is cell wall biosynthesis. To be noted: ref Iwatsuki et al., 2006; cited from earlier work.
Another experiment has as its system ClpC1. To be noted: cited from earlier work.
For experiment [1], the system named is stationary M. tuberculosis mc^26020. Briefly: Time-dependent killing, stationary cells. Type of experiment: cell-based. To be noted: 10 ×MIC; average of three biological replicates (Fig. 3B).

Turning to Lariatin A, the mechanism of action entry in the experiment on cell wall biosynthesis is given as “inhibits cell wall biosynthesis”. Turning to cyclomarin A, in the experiment with ClpC1, the “binding to ClpC1” value is on record as “binds to ClpC1” and the effect on proteolysis entry is “proposed to cause excessive proteolysis”. For the molecule `CO[C@H]1/C=C/O[C@@]2(C)Oc3c(C)c(O)c4c(O)c(c(/C=N/N5CCN(C)CC5)c(O)c4c3C2=O)NC(=O)/C(C)=C\C=C\[C@H](C)[C@H](O)[C@@H](C)[C@@H](O)[C@@H](C)[C@H](OC(C)=O)[C@@H]1C` [rifampicin], the “killing of stationary phase cells” value in experiment [1] was “characteristic biphasic killing (Fig. 3B) and a significant number of persister cells survive exposure”.
